8 molecules from patent publication US20240246964A1 (Arbutus Biopharma Corporation, priority 2021, published 2024) can be followed below.

The target in one test is human PD-L1 (Homo sapiens (Human), UniProt Q9NZQ7). Put plainly: T cell activation luciferase reporter cell culture system (T Cell Activation Assay). The class given is cell-based. Particulars: luciferase reporter assay; PD-L1 aAPC/CHO-K1 cells with PD-1 effector Jurkat T cells.
Test [1] addresses PD-L1 His protein / PD-1 Fc protein (Homo sapiens (Human), UniProt Q9NZQ7). The test is described as follows: HTRF Assay (PD-1/PD-L1 interaction). It counts as binding. Conditions: PD-L1 His 6 nM, PD-1 Fc 6 nM. Background: Time-resolved FRET reads energy transfer from a long-lived donor to a nearby acceptor.

The structures appear in SMILES notation.

Sequence of human PD-L1 (Q9NZQ7 19-290): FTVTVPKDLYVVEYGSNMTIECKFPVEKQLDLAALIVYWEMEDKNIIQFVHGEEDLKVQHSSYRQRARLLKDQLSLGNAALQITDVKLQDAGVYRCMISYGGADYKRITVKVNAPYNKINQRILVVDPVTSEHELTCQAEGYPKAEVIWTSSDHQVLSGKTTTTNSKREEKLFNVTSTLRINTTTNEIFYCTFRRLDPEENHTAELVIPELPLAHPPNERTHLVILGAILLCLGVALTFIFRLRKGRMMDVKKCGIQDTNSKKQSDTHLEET
Sequence of PD-L1 His protein / PD-1 Fc protein (Q9NZQ7 19-238): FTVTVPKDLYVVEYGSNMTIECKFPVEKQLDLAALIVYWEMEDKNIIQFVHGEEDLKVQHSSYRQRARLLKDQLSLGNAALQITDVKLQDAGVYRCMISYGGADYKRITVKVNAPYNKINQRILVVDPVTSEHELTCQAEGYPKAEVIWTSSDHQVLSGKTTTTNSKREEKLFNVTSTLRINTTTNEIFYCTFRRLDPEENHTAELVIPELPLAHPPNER

As for `COc1cc(-c2nccc(-c3cccc(-c4ccc(CN5CC6(C5)CN(C(C)=O)C6)c(OC)n4)c3Cl)c2Cl)ccc1CNC1CCN(C(C)=O)CC1` [Example 483, 1-(4-((4-(4-(3-(5-((6-acetyl-2,6-diazaspiro[3.3]heptan-2-yl)methyl)-6-methoxypyridin-2-yl)-2-chlorophenyl)-3-chloropyridin-2-yl)-2-methoxybenzyl)amino)piperidin-1-yl)ethan-1-one], on human PD-L1, the midpoint of the response, the EC50, lay at 39.7 nM. Further, the IC50 in test [1] turned out to be 2.63 nM.

On human PD-L1, `COc1cc(-c2nccc(-c3cccc(-c4ccc(CN5CC6(CNC(=O)C6)C5)c(OC)n4)c3Cl)c2Cl)ccc1CN1CC2(C1)CN(C(C)=O)C2` [Example 493, 2-((6-(3-(2-(4-((6-Acetyl-2,6-diazaspiro[3.3]heptan-2-yl)methyl)-3-methoxyphenyl)-3-chloropyridin-4-yl)-2-chlorophenyl)-2-methoxypyridin-3-yl)methyl)-2,6-diazaspiro[3.4]octan-7-one] returned a 50% effective concentration (EC50) of 19.2 nM. In test [1], this molecule had an IC50 of 0.76 nM.

`COc1cc(-c2nccc(-c3cccc(-c4ccc(CN5CC6(CNC(=O)C6)C5)c(OC)n4)c3Cl)c2Cl)ccc1CN1CC2(CNC2)C1` [Example 494, 2-((6-(3-(2-(4-((2,6-Diazaspiro[3.3]heptan-2-yl)methyl)-3-methoxyphenyl)-3-chloropyridin-4-yl)-2-chlorophenyl)-2-methoxypyridin-3-yl)methyl)-2,6-diazaspiro[3.4]-octan-7-one]: a half-maximal response on human PD-L1 (EC50) required 61.7 nM. The same molecule gave an IC50 in test [1] of 5.21 nM.

The molecule `COc1cc(-c2nccc(-c3cccc(-c4ccc(CN(C)CC5CN(C(C)=O)C5)c(OC)n4)c3Cl)c2Cl)ccc1CN(C)CC1CN(C(C)=O)C1` [Example 499, 1-(3-((((6-(3-(2-(4-((((1-Acetylazetidin-3-yl)methyl)(methyl)amino)methyl)-3-methoxyphenyl)-3-chloropyridin-4-yl)-2-chlorophenyl)-2-methoxypyridin-3-yl)methyl)(methyl)amino)methyl)azetidin-1-yl)ethan-1-one] displayed a concentration giving a half-maximal response (EC50) on human PD-L1 of 88.5 nM. This molecule displayed a half-maximal inhibitory concentration (IC50) in test [1] of 2.07 nM.

At human PD-L1, `COCC1CCN(Cc2ccc(-c3nccc(-c4cccc(-c5ccc(CNC6CCN(C(C)=O)CC6)c(OC)n5)c4Cl)c3Cl)cc2OC)CC1` [Example 509, 1-(4-(((6-(2-Chloro-3-(3-chloro-2-(3-methoxy-4-((4-(methoxymethyl)piperidin-1-yl)methyl)phenyl)pyridin-4-yl)phenyl)-2-methoxypyridin-3-yl)methyl)amino)piperidin-1-yl)ethan-1-one] came in with a concentration giving a half-maximal response (EC50) of 100 nM. The molecule further yielded an IC50 in test [1] of 9.77 nM.

`COc1cc(-c2nccc(-c3cccc(-c4ccc(CNC5CCN(C(C)=O)CC5)c(OC)n4)c3Cl)c2Cl)ccc1CNCC(F)F` [Example 513, 1-(4-(((6-(2-Chloro-3-(3-chloro-2-(4-(((2,2-difluoroethyl)amino)methyl)-3-methoxyphenyl)pyridin-4-yl)phenyl)-2-methoxypyridin-3-yl)methyl)amino)piperidin-1-yl)ethan-1-one] showed an EC50 at human PD-L1 of 685 nM. The IC50 in test [1] was 47.1 nM.

With `COc1cc(-c2nccc(-c3cccc(-c4ccc(CN[C@H]5C[C@](C)(O)C5)c(OC)n4)c3Cl)c2Cl)ccc1CN1CC2(CNC(=O)C2)C1` [Example 517, 2-(4-(3-Chloro-4-(2-chloro-3-(5-((((1r,3r)-3-hydroxy-3-methylcyclobutyl)-amino)methyl)-6-methoxypyridin-2-yl)phenyl)pyridin-2-yl)-2-methoxybenzyl)-2,6-diazaspiro[3.4]octan-7-one], on human PD-L1, the response was half-maximal at 17 nM (EC50). For the same molecule, the IC50 in test [1] is 1.55 nM.

Molecule `COc1cc(-c2nccc(-c3cccc(-c4ccc(CN5CC(C)(O)C5)c(OC)n4)c3Cl)c2Cl)ccc1CN1CC2(CNC(=O)C2)C1` [Example 518, 2-(4-(3-Chloro-4-(2-chloro-3-(5-((3-hydroxy-3-methylazetidin-1-yl)methyl)-6-methoxypyridin-2-yl)phenyl)pyridin-2-yl)-2-methoxybenzyl)-2,6-diazaspiro[3.4]octan-7-one] yielded a 50% effective concentration (EC50) on human PD-L1 of 9.77 nM. In test [1], this molecule had a 50% inhibitory concentration (IC50) of 2.42 nM.

As usually defined, the EC50 is the concentration that produces a half-maximal response. A low value points to a more potent agent. What is called IC50 is the midpoint of a concentration-inhibition curve. Lower therefore signals greater potency in that assay.
